Data from article PMC3013379 (Bioorganic & Medicinal Chemistry Letters, 2011).

Columns and labels:
[1] = test system: NF-κB activation induced by TNF-α in HEK293 cells (293/NFκB-luc); assay type: cell-based; conditions: HEK293 NF-κB luciferase reporter cells, 2 ng/ml TNF-α for 6 h
human recombinant IKK-β = target: T1, human recombinant IKK-β (Homo sapiens, UniProt O14920); assay: ELISA-based; assay type: biochemical
T1 sequence (O14920 1-756): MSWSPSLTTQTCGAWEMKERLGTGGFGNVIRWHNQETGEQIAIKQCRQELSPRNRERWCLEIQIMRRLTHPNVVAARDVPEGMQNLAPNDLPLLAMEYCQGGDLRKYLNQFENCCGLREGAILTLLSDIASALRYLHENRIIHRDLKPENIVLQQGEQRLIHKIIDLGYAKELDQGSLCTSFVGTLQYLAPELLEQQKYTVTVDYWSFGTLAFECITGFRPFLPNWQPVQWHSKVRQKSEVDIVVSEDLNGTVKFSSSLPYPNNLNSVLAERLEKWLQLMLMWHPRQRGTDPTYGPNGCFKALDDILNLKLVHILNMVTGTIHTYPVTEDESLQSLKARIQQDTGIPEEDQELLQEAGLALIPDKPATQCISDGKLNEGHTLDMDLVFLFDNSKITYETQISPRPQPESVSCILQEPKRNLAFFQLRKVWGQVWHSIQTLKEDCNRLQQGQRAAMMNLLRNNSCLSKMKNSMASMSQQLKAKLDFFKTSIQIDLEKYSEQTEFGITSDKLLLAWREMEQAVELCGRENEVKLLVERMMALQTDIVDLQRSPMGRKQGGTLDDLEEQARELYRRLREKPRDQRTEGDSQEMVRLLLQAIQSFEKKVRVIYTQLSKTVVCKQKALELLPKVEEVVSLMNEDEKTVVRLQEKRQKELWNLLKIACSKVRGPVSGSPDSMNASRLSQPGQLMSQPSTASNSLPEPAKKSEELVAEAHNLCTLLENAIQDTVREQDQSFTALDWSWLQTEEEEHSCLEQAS

| SMILES | Effect on TNF-α-induced luciferase activity (in words) [1] | IC50 (human recombinant IKK-β) [µM] |
| --- | --- | --- |
| O=C(OCCC12CC3CC(CC(C3)C1)C2)c1ccc(NCc2cc(O)ccc2O)cc1 [Compound 8, 2-(1-adamantyl)ethyl 4-[(2,5-dihydroxyphenyl)methylamino]benzoate] | inhibited TNF-α-induced luciferase activity dose-dependently | 6.95 ± 0.55 |
| NC(=O)Nc1sc(-c2ccc(F)cc2)cc1C(N)=O [IKK-β inhibitor IV, reference compound] | inhibited TNF-α-induced luciferase activity dose-dependently | – |
